Assay results from PubChem BioAssay (NCI).
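Interpolation was linear, between the two tested concentrations surrounding the appropriate level; five concentrations were tested over 48 hours in 96-well plates. GI50 marks 50% less growth. TGI marks complete inhibition of growth.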

How the values were obtained:
Experiment in all cases: DTP human tumour cell line panel, 48 h
786-0 renal = tested on: 786-0 renal
A498 renal = tested on: A498 renal
A549 NSCLC = tested on: A549 NSCLC
ACHN renal = tested on: ACHN renal
BT-549 breast = tested on: BT-549 breast
CAKI-1 renal = tested on: CAKI-1 renal
CCRF-CEM leukemia = tested on: CCRF-CEM leukemia
COLO 205 colon = tested on: COLO 205 colon
DU-145 prostate = tested on: DU-145 prostate
EKVX NSCLC = tested on: EKVX NSCLC
HCC-2998 colon = tested on: HCC-2998 colon
HCT-116 colon = tested on: HCT-116 colon
HCT-15 colon = tested on: HCT-15 colon
HL-60(TB) leukemia = tested on: HL-60(TB) leukemia
HOP-92 NSCLC = tested on: HOP-92 NSCLC
HS 578T breast = tested on: HS 578T breast
HT29 colon = tested on: HT29 colon
IGROV1 ovarian = tested on: IGROV1 ovarian
K-562 leukemia = tested on: K-562 leukemia
KM12 colon = tested on: KM12 colon
LOX IMVI melanoma = tested on: LOX IMVI melanoma
M14 melanoma = tested on: M14 melanoma
MALME-3M melanoma = tested on: MALME-3M melanoma
MCF7 breast = tested on: MCF7 breast
MDA-MB-231 breast = tested on: MDA-MB-231 breast
MDA-MB-435 = tested on: MDA-MB-435
MOLT-4 leukemia = tested on: MOLT-4 leukemia
NCI-H23 lung = tested on: NCI-H23 lung
NCI-H460 lung = tested on: NCI-H460 lung
NCI-H522 lung = tested on: NCI-H522 lung
NCI/ADR-RES ovarian = tested on: NCI/ADR-RES ovarian
OVCAR-3 ovarian = tested on: OVCAR-3 ovarian
OVCAR-4 ovarian = tested on: OVCAR-4 ovarian
OVCAR-5 ovarian = tested on: OVCAR-5 ovarian
OVCAR-8 ovarian = tested on: OVCAR-8 ovarian
PC-3 prostate = tested on: PC-3 prostate
RPMI-8226 leukemia = tested on: RPMI-8226 leukemia
RXF 393 renal = tested on: RXF 393 renal
SF-268 CNS = tested on: SF-268 CNS
SF-295 CNS = tested on: SF-295 CNS
SF-539 CNS = tested on: SF-539 CNS
SK-MEL-2 melanoma = tested on: SK-MEL-2 melanoma
SK-MEL-28 melanoma = tested on: SK-MEL-28 melanoma
SK-MEL-5 melanoma = tested on: SK-MEL-5 melanoma
SK-OV-3 ovarian = tested on: SK-OV-3 ovarian
SN12C renal = tested on: SN12C renal
SNB-19 CNS = tested on: SNB-19 CNS
SNB-75 CNS = tested on: SNB-75 CNS
SR leukemia = tested on: SR leukemia
SW-620 colon = tested on: SW-620 colon
TK-10 renal = tested on: TK-10 renal
U251 CNS = tested on: U251 CNS
UACC-257 melanoma = tested on: UACC-257 melanoma
UACC-62 melanoma = tested on: UACC-62 melanoma
UO-31 renal = tested on: UO-31 renal

Question: Which GI50 (786-0 renal) does the source give for `Cc1ccc(-c2nc([P+](c3ccccc3)(c3ccccc3)c3ccccc3)c(Nc3ccccc3)o2)cc1` here?
Answer: 1180 nM

Question: What about the TGI (786-0 renal) of the same compound?
Answer: 2570 nM

Question: What about the GI50 (A498 renal) of the same compound?
Answer: 1120 nM

Question: And the TGI (A498 renal)?
Answer: 2460 nM

Question: What about the GI50 (A549 NSCLC) of the same compound?
Answer: 1150 nM

Question: And the TGI (A549 NSCLC)?
Answer: 2870 nM

Question: And the GI50 (ACHN renal)?
Answer: 1040 nM

Question: What about the TGI (ACHN renal) of the same compound?
Answer: 2220 nM

Question: What about the GI50 (BT-549 breast) of the same compound?
Answer: 1530 nM

Question: What about the TGI (BT-549 breast) of the same compound?
Answer: 3020 nM

Question: And the GI50 (CAKI-1 renal)?
Answer: 1080 nM

Question: And the TGI (CAKI-1 renal)?
Answer: 2340 nM

Question: And the GI50 (CCRF-CEM leukemia)?
Answer: 445 nM

Question: What about the TGI (CCRF-CEM leukemia) of the same compound?
Answer: 2280 nM

Question: And the GI50 (COLO 205 colon)?
Answer: 995 nM

Question: What about the TGI (COLO 205 colon) of the same compound?
Answer: 2780 nM

Question: And the GI50 (DU-145 prostate)?
Answer: 1200 nM

Question: What about the TGI (DU-145 prostate) of the same compound?
Answer: 2480 nM

Question: What about the GI50 (EKVX NSCLC) of the same compound?
Answer: 815 nM

Question: What about the TGI (EKVX NSCLC) of the same compound?
Answer: 2180 nM

Question: What about the GI50 (HCC-2998 colon) of the same compound?
Answer: 659 nM

Question: And the TGI (HCC-2998 colon)?
Answer: 2020 nM

Question: And the GI50 (HCT-116 colon)?
Answer: 265 nM

Question: And the TGI (HCT-116 colon)?
Answer: 1220 nM

Question: What about the GI50 (HCT-15 colon) of the same compound?
Answer: 487 nM

Question: And the TGI (HCT-15 colon)?
Answer: 1810 nM

Question: And the GI50 (HL-60(TB) leukemia)?
Answer: 395 nM

Question: What about the TGI (HL-60(TB) leukemia) of the same compound?
Answer: 1300 nM

Question: What about the GI50 (HOP-92 NSCLC) of the same compound?
Answer: 188 nM

Question: And the TGI (HOP-92 NSCLC)?
Answer: 1160 nM

Question: What about the GI50 (HS 578T breast) of the same compound?
Answer: 1270 nM

Question: And the TGI (HS 578T breast)?
Answer: 3310 nM

Question: What about the GI50 (HT29 colon) of the same compound?
Answer: 344 nM

Question: What about the TGI (HT29 colon) of the same compound?
Answer: 1450 nM

Question: What about the GI50 (IGROV1 ovarian) of the same compound?
Answer: 708 nM

Question: And the TGI (IGROV1 ovarian)?
Answer: 2080 nM

Question: What about the GI50 (K-562 leukemia) of the same compound?
Answer: 326 nM

Question: What about the TGI (K-562 leukemia) of the same compound?
Answer: 1270 nM

Question: And the GI50 (KM12 colon)?
Answer: 519 nM

Question: What about the TGI (KM12 colon) of the same compound?
Answer: 1830 nM

Question: And the GI50 (LOX IMVI melanoma)?
Answer: 457 nM

Question: And the TGI (LOX IMVI melanoma)?
Answer: 1760 nM

Question: And the GI50 (M14 melanoma)?
Answer: 655 nM

Question: What about the TGI (M14 melanoma) of the same compound?
Answer: 2080 nM

Question: And the GI50 (MALME-3M melanoma)?
Answer: 250 nM

Question: And the TGI (MALME-3M melanoma)?
Answer: 801 nM

Question: What about the GI50 (MCF7 breast) of the same compound?
Answer: 346 nM

Question: What about the TGI (MCF7 breast) of the same compound?
Answer: 1430 nM

Question: And the GI50 (MDA-MB-231 breast)?
Answer: 728 nM

Question: And the TGI (MDA-MB-231 breast)?
Answer: 2090 nM

Question: And the GI50 (MDA-MB-435)?
Answer: 457 nM

Question: And the TGI (MDA-MB-435)?
Answer: 1630 nM

Question: What about the GI50 (MOLT-4 leukemia) of the same compound?
Answer: 477 nM

Question: And the TGI (MOLT-4 leukemia)?
Answer: 2060 nM

Question: And the GI50 (NCI-H23 lung)?
Answer: 344 nM

Question: And the TGI (NCI-H23 lung)?
Answer: 1280 nM

Question: And the GI50 (NCI-H460 lung)?
Answer: 515 nM

Question: What about the TGI (NCI-H460 lung) of the same compound?
Answer: 1800 nM

Question: And the GI50 (NCI-H522 lung)?
Answer: 259 nM

Question: And the TGI (NCI-H522 lung)?
Answer: 1150 nM

Question: And the GI50 (NCI/ADR-RES ovarian)?
Answer: 1110 nM

Question: And the TGI (NCI/ADR-RES ovarian)?
Answer: 2580 nM

Question: What about the GI50 (OVCAR-3 ovarian) of the same compound?
Answer: 288 nM

Question: What about the TGI (OVCAR-3 ovarian) of the same compound?
Answer: 886 nM

Question: And the GI50 (OVCAR-4 ovarian)?
Answer: 320 nM

Question: And the TGI (OVCAR-4 ovarian)?
Answer: 1260 nM

Question: What about the GI50 (OVCAR-5 ovarian) of the same compound?
Answer: 1310 nM

Question: And the TGI (OVCAR-5 ovarian)?
Answer: 2680 nM

Question: And the GI50 (OVCAR-8 ovarian)?
Answer: 1050 nM

Question: What about the TGI (OVCAR-8 ovarian) of the same compound?
Answer: 3270 nM

Question: And the GI50 (PC-3 prostate)?
Answer: 433 nM

Question: And the TGI (PC-3 prostate)?
Answer: 1830 nM

Question: What about the GI50 (RPMI-8226 leukemia) of the same compound?
Answer: 227 nM

Question: And the TGI (RPMI-8226 leukemia)?
Answer: 739 nM

Question: What about the GI50 (RXF 393 renal) of the same compound?
Answer: 926 nM

Question: And the TGI (RXF 393 renal)?
Answer: 2340 nM

Question: And the GI50 (SF-268 CNS)?
Answer: 1150 nM

Question: What about the TGI (SF-268 CNS) of the same compound?
Answer: 2530 nM

Question: And the GI50 (SF-295 CNS)?
Answer: 1140 nM

Question: And the TGI (SF-295 CNS)?
Answer: 2410 nM

Question: And the GI50 (SF-539 CNS)?
Answer: 1540 nM

Question: And the TGI (SF-539 CNS)?
Answer: 2910 nM

Question: And the GI50 (SK-MEL-2 melanoma)?
Answer: 808 nM

Question: What about the TGI (SK-MEL-2 melanoma) of the same compound?
Answer: 2420 nM

Question: What about the GI50 (SK-MEL-28 melanoma) of the same compound?
Answer: 1220 nM

Question: What about the TGI (SK-MEL-28 melanoma) of the same compound?
Answer: 2520 nM

Question: What about the GI50 (SK-MEL-5 melanoma) of the same compound?
Answer: 406 nM

Question: What about the TGI (SK-MEL-5 melanoma) of the same compound?
Answer: 1480 nM

Question: And the GI50 (SK-OV-3 ovarian)?
Answer: 1440 nM

Question: And the TGI (SK-OV-3 ovarian)?
Answer: 3080 nM

Question: And the GI50 (SN12C renal)?
Answer: 541 nM

Question: And the TGI (SN12C renal)?
Answer: 1840 nM

Question: And the GI50 (SNB-19 CNS)?
Answer: 1160 nM

Question: What about the TGI (SNB-19 CNS) of the same compound?
Answer: 2410 nM

Question: And the GI50 (SNB-75 CNS)?
Answer: 1230 nM

Question: What about the TGI (SNB-75 CNS) of the same compound?
Answer: 2540 nM

Question: And the GI50 (SR leukemia)?
Answer: 390 nM

Question: And the TGI (SR leukemia)?
Answer: 2320 nM

Question: What about the GI50 (SW-620 colon) of the same compound?
Answer: 446 nM

Question: What about the TGI (SW-620 colon) of the same compound?
Answer: 1660 nM

Question: And the GI50 (TK-10 renal)?
Answer: 1270 nM

Question: And the TGI (TK-10 renal)?
Answer: 2780 nM

Question: And the GI50 (U251 CNS)?
Answer: 585 nM

Question: And the TGI (U251 CNS)?
Answer: 2140 nM

Question: What about the GI50 (UACC-257 melanoma) of the same compound?
Answer: 831 nM

Question: What about the TGI (UACC-257 melanoma) of the same compound?
Answer: 2700 nM

Question: And the GI50 (UACC-62 melanoma)?
Answer: 630 nM

Question: And the TGI (UACC-62 melanoma)?
Answer: 1930 nM

Question: And the GI50 (UO-31 renal)?
Answer: 421 nM

Question: What about the TGI (UO-31 renal) of the same compound?
Answer: 1730 nM
